According to patent US20260325533A1, “CDK INHIBITOR COMPOUNDS” (ALEKSIA THERAPEUTICS, INC., priority 2023, published 2026):
Like-named read-outs stand apart in the source and are kept apart here.

Columns and labels:
[1] = target: CDK2/CCNE1 (Homo sapiens, UniProt P24941); experiment: CDK2 homogeneous time-resolved fluorescence (HTRF) kinase assay; format: biochemical
Procedure, shortened: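 IC50 derived from 11-point, half-log dilutions (usually top 10 μM) of compound, 1% DMSO. Kinase (3 nM CDK2/CCNE1) was preincubated with compound 20 min, then phosphorylated 50 nM ULight-4E-BP1 peptide at 1 mM ATP for 60 min, 23 °C. Europium-antibody TR-FRET read after EDTA stop.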

[2] = target: CDK1/CCNB1 (Homo sapiens, UniProt P06493); experiment: CDK1 homogeneous time-resolved fluorescence (HTRF) kinase assay; format: biochemical
Procedure, shortened: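 HTRF assay with 0.5 nM CDK1/CCNB1, 1 mM ATP, 50 nM ULight-eIF4E-BP1 (Thr37/46) peptide; compound preincubated 20 min, reaction 60 min at 23 °C, EDTA stop, Eu-anti-phospho antibody detection. 11-point half-log titration from 10 μM, 1% DMSO; IC50 from 665 nm or 665/615 signal.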

[3] = CDK2/CCNE, 25-250 nM marked x, read-out: CDK2/CCNE IC50 25-250 nM
[4] = CDK1/CCNB, >250 nM marked x, read-out: CDK1/CCNB IC50 >250 nM
[5] = CDK1/CCNB, 25-250 nM marked x, read-out: CDK1/CCNB IC50 25-250 nM
[6] = CDK2/CCNE, <25 nM, read-out: CDK2/CCNE IC50 <25 nM
[7] = CDK2/CCNE, >250 nM marked x, read-out: CDK2/CCNE IC50 >250 nM
[8] = 3 nM CDK2/CCNE1, 1 mM ATP, read-out: CDK2/CCNE IC50 >250 nM
[9] = 0.5 nM CDK1/CCNB1, 1 mM ATP, read-out: CDK1/CCNB IC50 >250 nM
[10] = 3 nM CDK2/CCNE1, 1 mM ATP, read-out: CDK2/CCNE IC50 25-250 nM

Chain of CDK1/CCNB1 (P06493 whole entry): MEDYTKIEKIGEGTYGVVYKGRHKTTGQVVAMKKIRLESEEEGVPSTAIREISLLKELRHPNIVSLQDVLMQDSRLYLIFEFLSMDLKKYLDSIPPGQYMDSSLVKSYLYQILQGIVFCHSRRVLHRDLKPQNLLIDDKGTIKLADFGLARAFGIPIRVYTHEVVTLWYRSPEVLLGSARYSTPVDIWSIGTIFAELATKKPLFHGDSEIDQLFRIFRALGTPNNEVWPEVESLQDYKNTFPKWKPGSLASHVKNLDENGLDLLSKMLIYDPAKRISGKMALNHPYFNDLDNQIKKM
Chain of CDK1/CCNB1 (P14635 whole entry partner): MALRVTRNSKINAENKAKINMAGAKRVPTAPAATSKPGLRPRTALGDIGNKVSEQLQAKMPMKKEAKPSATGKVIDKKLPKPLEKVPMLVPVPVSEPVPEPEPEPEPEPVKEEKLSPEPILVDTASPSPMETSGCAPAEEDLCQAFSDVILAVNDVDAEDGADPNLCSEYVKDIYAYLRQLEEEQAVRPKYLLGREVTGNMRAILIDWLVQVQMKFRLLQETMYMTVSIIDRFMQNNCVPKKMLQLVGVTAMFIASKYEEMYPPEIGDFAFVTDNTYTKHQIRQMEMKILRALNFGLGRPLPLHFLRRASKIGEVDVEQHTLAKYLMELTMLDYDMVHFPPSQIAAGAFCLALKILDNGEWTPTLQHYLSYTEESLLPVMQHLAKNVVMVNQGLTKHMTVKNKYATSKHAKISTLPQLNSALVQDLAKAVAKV

## C=CS(=O)(=O)c1ccc(Nc2cc3c(-c4ccc5[nH]ncc5c4)nccc3cn2)cc1 [Ex 205, 5-(1H-indazol-5-yl)-N-(4-(vinylsulfonyl)phenyl)-2,6-naphthyridin-3-amine]
[1]; [3]
  IC50: 0.025 to 0.25 µM
[2]; [4]
  IC50: > 0.25 µM

## Cc1c(-c2nccc3cnc(Nc4ccc(S(C)(=O)=O)cc4)cc23)ccc2nn(CCC3CNC3)cc12 [Ex 208, 5-(2-(2-(azetidin-3-yl)ethyl)-4-methyl-2H-indazol-5-yl)-N-(4-(methylsulfonyl)phenyl)-2,6-naphthyridin-3-amine]
[1]; [3]
  IC50: 0.025 to 0.25 µM
[2]; [4]
  IC50: > 0.25 µM

## C=CS(=O)(=O)c1ccc(Nc2cc3c(-c4cc5cn[nH]c5cc4C)nccc3cn2)cc1 [Ex 209, 5-(6-methyl-1H-indazol-5-yl)-N-(4-(vinylsulfonyl)phenyl)-2,6-naphthyridin-3-amine]
[1]; [3]
  IC50: 0.025 to 0.25 µM
[2]; [4]
  IC50: > 0.25 µM

## N#CC1CCN(c2nccc3cnc(Nc4ccc(O)c(CO)c4)cc23)CC1 [Ex 210, 1-(7-((4-hydroxy-3-(hydroxymethyl)phenyl)amino)-2,6-naphthyridin-1-yl)piperidine-4-carbonitrile]
[1]; [3]
  IC50: 0.025 to 0.25 µM
[2]; [5]
  IC50: 0.025 to 0.25 µM

## CC1(C#N)CCN(c2nccc3cnc(NC4CCN(S(C)(=O)=O)CC4)cc23)CC1 [Ex 212, 4-methyl-1-(7-((1-(methylsulfonyl)piperidin-4-yl)amino)-2,6-naphthyridin-1-yl)piperidine-4-carbonitrile]
[1]; [3]
  IC50: 0.025 to 0.25 µM
[2]; [4]
  IC50: > 0.25 µM

## N#CC1CCN(c2nccc3cnc(Nc4cccc(C(=O)ON5C(=O)CCC5=O)c4)cc23)CC1 [Ex 258, 2,5-dioxopyrrolidin-1-yl 3-((5-(4-cyanopiperidin-1-yl)-2,6-naphthyridin-3-yl)amino)benzoate]
[1]; [6]
  IC50: < 0.025 µM
[2]; CDK1/CCNB, <25 nM, read-out: CDK1/CCNB IC50 <25 nM
  IC50: < 0.025 µM

## CS(=O)(=O)c1ccc(Nc2cc3c(N4CCC(C#N)CC4)nccc3cn2)cc1 [Ex 259, 1-(7-((4-(methylsulfonyl)phenyl)amino)-2,6-naphthyridin-1-yl)piperidine-4-carbonitrile]
[1]; [3]
  IC50: 0.025 to 0.25 µM
[2]; [4]
  IC50: > 0.25 µM

## Cc1cc2c(cnn2C)cc1-c1nccc2cnc(NC3CCN(S(C)(=O)=O)CC3)cc12 [Ex 262, 5-(1,6-dimethyl-1H-indazol-5-yl)-N-(1-(methylsulfonyl)piperidin-4-yl)-2,6-naphthyridin-3-amine]
[1]; [6]
  IC50: < 0.025 µM
[2]; [5]
  IC50: 0.025 to 0.25 µM

## Cn1cc(-c2nccc3cnc(NC4CCN(S(C)(=O)=O)CC4)cc23)cn1 [Example 4, 5-(1-methyl-1H-pyrazol-4-yl)-N-(1-(methylsulfonyl)piperidin-4-yl)-2,6-naphthyridin-3-amine]
[1]; [3]
  IC50: 0.025 to 0.25 µM
[2]; [4]
  IC50: > 0.25 µM

## COc1nccc2cnc(NC3CCN(S(C)(=O)=O)CC3)cc12 [Example 5, 5-methoxy-N-(1-(methylsulfonyl)piperidin-4-yl)-2,6-naphthyridin-3-amine]
[1]; [3]
  IC50: 0.025 to 0.25 µM
[2]; [4]
  IC50: > 0.25 µM

## CS(=O)(=O)N1CCC(Nc2cc3c(-c4ccccn4)nccc3cn2)CC1 [Example 8, N-(1-(methylsulfonyl)piperidin-4-yl)-5-(pyridin-2-yl)-2,6-naphthyridin-3-amine]
[1]; [3]
  IC50: 0.025 to 0.25 µM
[2]; [4]
  IC50: > 0.25 µM

## C=CS(=O)(=O)N1CCC(Nc2cc3c(N4CCCCC4)nccc3cn2)C1 (centres unmarked) [Example 9, 5-(piperidin-1-yl)-N-(1-(vinylsulfonyl)pyrrolidin-3-yl)-2,6-naphthyridin-3-amine]
[1]; [7]
  IC50: > 0.25 µM
[2]; [4]
  IC50: > 0.25 µM

## C=CS(=O)(=O)N1CCC(Nc2cc3c(N4CCC(F)(F)CC4)nccc3cn2)CC1 [Example 10, 5-(4,4-difluoropiperidin-1-yl)-N-(1-(vinylsulfonyl)piperidin-4-yl)-2,6-naphthyridin-3-amine]
[1]; [3]
  IC50: 0.025 to 0.25 µM
[2]; [4]
  IC50: > 0.25 µM

## CS(=O)(=O)N1CCC(Nc2cc3c(C(=O)N4CCC(O)CC4)nccc3cn2)CC1 [Example 12, (4-hydroxypiperidin-1-yl)(7-((1-(methylsulfonyl)piperidin-4-yl)amino)-2,6-naphthyridin-1-yl)methanone]
[1]; [7]
  IC50: > 0.25 µM
[2]; [4]
  IC50: > 0.25 µM

## N#CC1CCN(c2nccc3cnc(Nc4cccc(OS(=O)(=O)F)c4)cc23)CC1 [Example 13, 3-((5-(4-cyanopiperidin-1-yl)-2,6-naphthyridin-3-yl)amino)phenyl sulfurofluoridate]
[1]
  IC50: > 0.25 µM
[2]
  IC50: > 0.25 µM

## N#CC1CCN(c2nccc3cnc(Nc4ccc(OS(=O)(=O)F)cc4)cc23)CC1 [Example 14, 4-((5-(4-cyanopiperidin-1-yl)-2,6-naphthyridin-3-yl)amino)phenyl sulfurofluoridate]
[1]
  IC50: > 0.25 µM
[2]
  IC50: > 0.25 µM

## N#CC1CCN(c2nccc3cnc(Nc4ccc(C(=O)NC5CCSC5=O)cc4)cc23)CC1 (centres unmarked) [Example 16, 4-((5-(4-cyanopiperidin-1-yl)-2,6-naphthyridin-3-yl)amino)-N-(2-oxotetrahydrothiophen-3-yl)benzamide]
[1]; [7]
  IC50: > 0.25 µM
[2]; [4]
  IC50: > 0.25 µM

## CS(=O)(=O)N1CCC(Nc2cc3c(N4CCCCC4)nc(CO)cc3cn2)CC1 [Example 17, (7-((1-(methylsulfonyl)piperidin-4-yl)amino)-1-(piperidin-1-yl)-2,6-naphthyridin-3-yl)methanol]
[1]; [3]
  IC50: 0.025 to 0.25 µM
[2]; [4]
  IC50: > 0.25 µM

## CS(=O)(=O)N1CCC(Nc2cc3c(N4CCCCC4)nc(CCO)cc3cn2)CC1 [Example 19, 2-(7-((1-(methylsulfonyl)piperidin-4-yl)amino)-1-(piperidin-1-yl)-2,6-naphthyridin-3-yl)ethan-1-ol]
[1]; [3]
  IC50: 0.025 to 0.25 µM
[2]; [4]
  IC50: > 0.25 µM

## Cc1cc2cnc(NC3CCN(S(C)(=O)=O)CC3)cc2c(N2CCCCC2)n1 [Example 25, 7-methyl-N-(1-(methylsulfonyl)piperidin-4-yl)-5-(piperidin-1-yl)-2,6-naphthyridin-3-amine]
[1]; [7]
  IC50: > 0.25 µM
[2]; [4]
  IC50: > 0.25 µM

## CS(=O)(=O)c1ccc(Nc2cc3c(C4=CCCCC4)ccnc3cn2)cc1 [Example 951, 4-(cyclohex-1-en-1-yl)-N-(4-(methylsulfonyl)phenyl)-1,7-naphthyridin-6-amine]
[1]; [8]
  IC50: > 0.25 µM
[2]; [9]
  IC50: > 0.25 µM

## CS(=O)(=O)c1ccc(Nc2ncc3cccc(C4=CCCCC4)c3n2)cc1 [Example 952, 8-(cyclohex-1-en-1-yl)-N-(4-(methylsulfonyl)phenyl)quinazolin-2-amine]
[1]; [10]
  IC50: 0.025 to 0.25 µM
[2]; [9]
  IC50: > 0.25 µM

## CS(=O)(=O)c1ccc(Nc2cc3c(N4CCC(C#N)CC4)ccnc3cn2)cc1 [Example 959, 1-(6-((4-(methylsulfonyl)phenyl)amino)-1,7-naphthyridin-4-yl)piperidine-4-carbonitrile]
[1]; [8]
  IC50: > 0.25 µM
[2]; [9]
  IC50: > 0.25 µM

## CS(=O)(=O)c1ccc(Nc2cc3c(N4CCC(C#N)CC4)ncnc3cn2)cc1 [Example 960, 1-(6-((4-(methylsulfonyl)phenyl)amino)pyrido [3,4-d]pyrimidin-4-yl)piperidine-4-carbonitrile]
[1]; [8]
  IC50: > 0.25 µM
[2]; [9]
  IC50: > 0.25 µM

## CS(=O)(=O)c1ccc(Nc2ncc3cccc(N4CCC(C#N)CC4)c3n2)cc1 [Example 961, 1-(2-((4-(methylsulfonyl)phenyl)amino)quinazolin-8-yl) piperidine-4-carbonitrile]
[1]; [10]
  IC50: 0.025 to 0.25 µM
[2]; [9]
  IC50: > 0.25 µM
